Assay results as given in PubChem BioAssay (NCI).
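1) Cells in 96-well plates. 2) Compound, 48 h, 5 concentrations. 3) Linear interpolation between surrounding doses. 4) Unreached endpoint = highest concentration. TGI is the concentration that stops growth completely.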

system: SK-MEL-5 melanoma; assay: NCI-60 cell line screen, 48 h

Compound | TGI [µM]
COc1ccc(C(=C2C=CC=C2)c2ccc(OC)cc2)cc1 | 95.3
Oc1ccc(-c2nc3ccc(Br)cc3s2)cc1 | 60.2
Nc1nc(SCCC/C=C/I)nc2c1ncn2C1OC(COP(=O)(O)O)C(O)C1O (stereo unspecified) | > 100
Nc1c(S(=O)(=O)O)cc2cc(S(=O)(=O)O)ccc2c1N=Nc1ccc(-c2ccc(N=Nc3c(N)c(S(=O)(=O)O)cc4cc(S(=O)(=O)O)ccc34)c(S(=O)(=O)O)c2)cc1 | > 100
N=c1nnc2ccc(Cl)cc2n1O | > 100
CCN(CC)CCNC(=O)c1cc2cc(NC(=O)c3cc4cc([N+](=O)[O-])ccc4[nH]3)ccc2[nH]1 | > 100
CC1=C(Cl)C=CP(=O)(Oc2ccccc2)C1 (stereo unspecified) | > 100
COc1ccc(/C=c2\sc3n(c2=O)CCN=3)cc1 | > 100

system: MALME-3M melanoma; assay: NCI-60 cell line screen, 48 h

Compound | TGI [µM]
COc1ccc(C(=C2C=CC=C2)c2ccc(OC)cc2)cc1 | 81.8
Oc1ccc(-c2nc3ccc(Br)cc3s2)cc1 | 90.9
Nc1nc(SCCC/C=C/I)nc2c1ncn2C1OC(COP(=O)(O)O)C(O)C1O (stereo unspecified) | > 100
Nc1c(S(=O)(=O)O)cc2cc(S(=O)(=O)O)ccc2c1N=Nc1ccc(-c2ccc(N=Nc3c(N)c(S(=O)(=O)O)cc4cc(S(=O)(=O)O)ccc34)c(S(=O)(=O)O)c2)cc1 | > 100
N=c1nnc2ccc(Cl)cc2n1O | > 100
CC1=C(Cl)C=CP(=O)(Oc2ccccc2)C1 (stereo unspecified) | > 100
COc1ccc(/C=c2\sc3n(c2=O)CCN=3)cc1 | > 100

system: A549 NSCLC; assay: NCI-60 cell line screen, 48 h

Compound | TGI [µM]
COc1ccc(C(=C2C=CC=C2)c2ccc(OC)cc2)cc1 | > 100
Oc1ccc(-c2nc3ccc(Br)cc3s2)cc1 | 68.9
Nc1nc(SCCC/C=C/I)nc2c1ncn2C1OC(COP(=O)(O)O)C(O)C1O (stereo unspecified) | > 100
Nc1c(S(=O)(=O)O)cc2cc(S(=O)(=O)O)ccc2c1N=Nc1ccc(-c2ccc(N=Nc3c(N)c(S(=O)(=O)O)cc4cc(S(=O)(=O)O)ccc34)c(S(=O)(=O)O)c2)cc1 | > 100
CCN(CC)CCNC(=O)c1cc2cc(NC(=O)c3cc4cc([N+](=O)[O-])ccc4[nH]3)ccc2[nH]1 | > 100
CC1=C(Cl)C=CP(=O)(Oc2ccccc2)C1 (stereo unspecified) | > 100
COc1ccc(/C=c2\sc3n(c2=O)CCN=3)cc1 | > 100

system: SF-539 CNS; assay: NCI-60 cell line screen, 48 h

Compound | TGI [µM]
COc1ccc(C(=C2C=CC=C2)c2ccc(OC)cc2)cc1 | 29.6
Oc1ccc(-c2nc3ccc(Br)cc3s2)cc1 | 35.8
Nc1nc(SCCC/C=C/I)nc2c1ncn2C1OC(COP(=O)(O)O)C(O)C1O (stereo unspecified) | > 100
Nc1c(S(=O)(=O)O)cc2cc(S(=O)(=O)O)ccc2c1N=Nc1ccc(-c2ccc(N=Nc3c(N)c(S(=O)(=O)O)cc4cc(S(=O)(=O)O)ccc34)c(S(=O)(=O)O)c2)cc1 | > 100
CCN(CC)CCNC(=O)c1cc2cc(NC(=O)c3cc4cc([N+](=O)[O-])ccc4[nH]3)ccc2[nH]1 | > 49.7
COc1ccc(/C=c2\sc3n(c2=O)CCN=3)cc1 | > 100

system: UO-31 renal; assay: NCI-60 cell line screen, 48 h

Compound | TGI [µM]
COc1ccc(C(=C2C=CC=C2)c2ccc(OC)cc2)cc1 | > 100
Oc1ccc(-c2nc3ccc(Br)cc3s2)cc1 | 44.4
Nc1c(S(=O)(=O)O)cc2cc(S(=O)(=O)O)ccc2c1N=Nc1ccc(-c2ccc(N=Nc3c(N)c(S(=O)(=O)O)cc4cc(S(=O)(=O)O)ccc34)c(S(=O)(=O)O)c2)cc1 | > 100
N=c1nnc2ccc(Cl)cc2n1O | > 100
CCN(CC)CCNC(=O)c1cc2cc(NC(=O)c3cc4cc([N+](=O)[O-])ccc4[nH]3)ccc2[nH]1 | > 100
CC1=C(Cl)C=CP(=O)(Oc2ccccc2)C1 (stereo unspecified) | > 100
COc1ccc(/C=c2\sc3n(c2=O)CCN=3)cc1 | > 100

system: NCI-H522 lung; assay: NCI-60 cell line screen, 48 h

Compound | TGI [µM]
COc1ccc(C(=C2C=CC=C2)c2ccc(OC)cc2)cc1 | 40.4
Oc1ccc(-c2nc3ccc(Br)cc3s2)cc1 | 22.9
Nc1nc(SCCC/C=C/I)nc2c1ncn2C1OC(COP(=O)(O)O)C(O)C1O (stereo unspecified) | > 100
Nc1c(S(=O)(=O)O)cc2cc(S(=O)(=O)O)ccc2c1N=Nc1ccc(-c2ccc(N=Nc3c(N)c(S(=O)(=O)O)cc4cc(S(=O)(=O)O)ccc34)c(S(=O)(=O)O)c2)cc1 | > 100
N=c1nnc2ccc(Cl)cc2n1O | > 100
CC1=C(Cl)C=CP(=O)(Oc2ccccc2)C1 (stereo unspecified) | 29.9
COc1ccc(/C=c2\sc3n(c2=O)CCN=3)cc1 | > 100

system: ACHN renal; assay: NCI-60 cell line screen, 48 h

Compound | TGI [µM]
COc1ccc(C(=C2C=CC=C2)c2ccc(OC)cc2)cc1 | > 100
Oc1ccc(-c2nc3ccc(Br)cc3s2)cc1 | 62.8
Nc1nc(SCCC/C=C/I)nc2c1ncn2C1OC(COP(=O)(O)O)C(O)C1O (stereo unspecified) | > 100
N=c1nnc2ccc(Cl)cc2n1O | > 100
CCN(CC)CCNC(=O)c1cc2cc(NC(=O)c3cc4cc([N+](=O)[O-])ccc4[nH]3)ccc2[nH]1 | > 100
CC1=C(Cl)C=CP(=O)(Oc2ccccc2)C1 (stereo unspecified) | > 100
COc1ccc(/C=c2\sc3n(c2=O)CCN=3)cc1 | > 100

system: SW-620 colon; assay: NCI-60 cell line screen, 48 h

Compound | TGI [µM]
COc1ccc(C(=C2C=CC=C2)c2ccc(OC)cc2)cc1 | > 100
Oc1ccc(-c2nc3ccc(Br)cc3s2)cc1 | > 100
Nc1nc(SCCC/C=C/I)nc2c1ncn2C1OC(COP(=O)(O)O)C(O)C1O (stereo unspecified) | > 100
Nc1c(S(=O)(=O)O)cc2cc(S(=O)(=O)O)ccc2c1N=Nc1ccc(-c2ccc(N=Nc3c(N)c(S(=O)(=O)O)cc4cc(S(=O)(=O)O)ccc34)c(S(=O)(=O)O)c2)cc1 | > 100
N=c1nnc2ccc(Cl)cc2n1O | > 100
CCN(CC)CCNC(=O)c1cc2cc(NC(=O)c3cc4cc([N+](=O)[O-])ccc4[nH]3)ccc2[nH]1 | > 58
CC1=C(Cl)C=CP(=O)(Oc2ccccc2)C1 (stereo unspecified) | > 100
COc1ccc(/C=c2\sc3n(c2=O)CCN=3)cc1 | > 100

system: TK-10 renal; assay: NCI-60 cell line screen, 48 h

Compound | TGI [µM]
COc1ccc(C(=C2C=CC=C2)c2ccc(OC)cc2)cc1 | > 100
Oc1ccc(-c2nc3ccc(Br)cc3s2)cc1 | 35.9
Nc1nc(SCCC/C=C/I)nc2c1ncn2C1OC(COP(=O)(O)O)C(O)C1O (stereo unspecified) | > 100
N=c1nnc2ccc(Cl)cc2n1O | > 100
CCN(CC)CCNC(=O)c1cc2cc(NC(=O)c3cc4cc([N+](=O)[O-])ccc4[nH]3)ccc2[nH]1 | 48.6
COc1ccc(/C=c2\sc3n(c2=O)CCN=3)cc1 | > 100

system: COLO 205 colon; assay: NCI-60 cell line screen, 48 h

Compound | TGI [µM]
COc1ccc(C(=C2C=CC=C2)c2ccc(OC)cc2)cc1 | 43.5
Oc1ccc(-c2nc3ccc(Br)cc3s2)cc1 | 33.7
Nc1nc(SCCC/C=C/I)nc2c1ncn2C1OC(COP(=O)(O)O)C(O)C1O (stereo unspecified) | > 100
Nc1c(S(=O)(=O)O)cc2cc(S(=O)(=O)O)ccc2c1N=Nc1ccc(-c2ccc(N=Nc3c(N)c(S(=O)(=O)O)cc4cc(S(=O)(=O)O)ccc34)c(S(=O)(=O)O)c2)cc1 | > 100
N=c1nnc2ccc(Cl)cc2n1O | 64.5
CCN(CC)CCNC(=O)c1cc2cc(NC(=O)c3cc4cc([N+](=O)[O-])ccc4[nH]3)ccc2[nH]1 | 28.9
CC1=C(Cl)C=CP(=O)(Oc2ccccc2)C1 (stereo unspecified) | > 100

system: SK-MEL-28 melanoma; assay: NCI-60 cell line screen, 48 h

Compound | TGI [µM]
COc1ccc(C(=C2C=CC=C2)c2ccc(OC)cc2)cc1 | > 100
